Where only a bound is given, the exact number is not on record here.

Results on 29 compounds are retold here after patent publication US11078170B2 (Assembly Biosciences, Inc., priority 2017, dated 2021).

The experiment deals with HBV viral production from HepAD38 cells. In words: Activity of test compounds on viral production from HepAD38 cells (viral load by qPCR of HBV core sequence in supernatant). The class given is cell-based. The following applies: Hepatitis B virus, 120 h, 5 days incubation, HBV DNA in supernatant by qPCR, top concentration 10 μM, read-out: Viral Load EC50 Activity range. A digest of the protocol: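 EC50 and CC50 come from four-parameter fits of supernatant viral load and CellTiter-Glo viability, respectively. Viral load was measured by core-region TaqMan qPCR against HBV DNA standards and compared with DMSO controls. Tet-free HepAD38 cells (50,000/well, 2% FBS) were exposed to compound, highest 10 μM, for 5 days at 37° C.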

`CN1C(C(=O)Nc2ccc(F)c(Cl)c2)CC(c2ncc(-c3cnn(C)c3)s2)NS1(=O)=O` (racemic) [HBV-CSU-177, Cis-N-(3-Chloro-4-fluorophenyl)-2-methyl-5-(5-(1-methyl-1H-pyrazol-4-yl)thiazol-2-yl)-1,2,6-thiadiazinane-3-carboxamide 1,1-dioxide]: the EC50 was less than 1 µM.

As to `CN1C(C(=O)Nc2cc(F)c(F)c(F)c2)CC(c2cccs2)NS1(=O)=O` (racemic) [HBV-CSU-036, Cis-2-Methyl-5-(thiophen-2-yl)-N-(3,4,5-trifluorophenyl)-1,2,6-thiadiazinane-3-carboxamide 1,1-dioxide], the EC50 was less than 1 µM.

Take `CN1[C@@H](C(=O)Nc2ccc(F)c(Cl)c2)C[C@@H](c2cccc(-c3cnn(C)c3)c2)NS1(=O)=O` [HBV-CSU-247-ISO-II, Cis-N-(3-chloro-4-fluorophenyl)-2-methyl-5-(3-(1-methyl-1H-pyrazol-4-yl)phenyl)-1,2,6-thiadiazinane-3-carboxamide 1,1-dioxide]: the EC50 was less than 1 µM.

For `O=C(Nc1ccc(F)c(Cl)c1)[C@@H]1C[C@H](c2nccs2)NS(=O)(=O)N1CCOC(F)(F)F` [HBV-CSU-072-ISO-II, Cis-N-(3-Chloro-4-fluorophenyl)-5-(thiazol-2-yl)-2-(2-(trifluoromethoxy)ethyl)-1,2,6-thiadiazinane-3-carboxamide 1,1-dioxide], the EC50 is less than 1 µM.

In the case of `C#CCN1[C@H](C(=O)Nc2ccc(F)c(Cl)c2)C[C@H](c2nccs2)NS1(=O)=O` (relative stereo) [HBV-CSU-089-ISO-I, Cis-N-(3-chloro-4-fluorophenyl)-2-(prop-2-yn-1-yl)-5-(thiazol-2-yl)-1,2,6-thiadiazinane-3-carboxamide 1,1-dioxide], the EC50 was less than 1 µM.

For the compound `CN1C(C(=O)Nc2ccc(F)c(Cl)c2)CC(c2ccc(-c3cccnc3)s2)NS1(=O)=O` (racemic) [HBV-CSU-159, Cis-N-(3-chloro-4-fluorophenyl)-2-methyl-5-(5-(pyridin-3-yl)thiophen-2-yl)-1,2,6-thiadiazinane-3-carboxamide 1,1-dioxide], the EC50 was less than 1 µM.

With `CN1C(C(=O)Nc2ccc(F)c(Cl)c2)CC(c2ccc(-c3cncs3)s2)NS1(=O)=O` (racemic) [HBV-CSU-268, Cis-N-(3-Chloro-4-fluorophenyl)-2-methyl-5-(5-(thiazol-5-yl)thiophen-2-yl)-1,2,6-thiadiazinane-3-carboxamide 1,1-dioxide], the EC50 was less than 1 µM.

As to `CN1[C@@H](C(=O)Nc2ccc(F)c(Cl)c2)C[C@@H](c2ccc(F)c(F)c2)NS1(=O)=O` [HBV-CSU-230-ISO-II, Cis-N-(3-Chloro-4-fluorophenyl)-5-(3,4-difluorophenyl)-2-methyl-1,2,6-thiadiazinane-3-carboxamide 1,1-dioxide], the EC50 is greater than 5 µM.

Regarding `CN(C)CCCOc1ccc([C@@H]2C[C@H](C(=O)Nc3ccc(F)c(Cl)c3)N(C)S(=O)(=O)N2)cc1` [HBV-CSU-208-ISO-I, Cis-N-(3-chloro-4-fluorophenyl)-5-(4-(3-(dimethylamino)propoxy)phenyl)-2-methyl-1,2,6-thiadiazinane-3-carboxamide 1,1-dioxide], the EC50 is greater than 5 µM.

On to `COCCN1[C@H](C(=O)Nc2ccc(F)c(Cl)c2)C[C@H](c2ccc(F)cc2)NS1(=O)=O` [HBV-CSU-210-ISO-II, Cis-N-(3-Chloro-4-fluorophenyl)-5-(4-fluorophenyl)-2-(2-methoxyethyl)-1,2,6-thiadiazinane-3-carboxamide 1,1-dioxide], for which the EC50 is less than 1 µM.

For the compound `CN1C(C(=O)Nc2ccc(F)c(Cl)c2)CC(c2ncc(Br)s2)NS1(=O)=O` (racemic) [HBV-CSU-122, Cis-5-(5-bromothiazol-2-yl)-N-(3-chloro-4-fluorophenyl)-2-methyl-1,2,6-thiadiazinane-3-carboxamide 1,1-dioxide], the EC50 was less than 1 µM.

`COC(C)(C)CCN1C(C(=O)Nc2ccc(F)c(Cl)c2)CC(c2nccs2)NS1(=O)=O` (racemic) [HBV-CSU-083, Cis-N-(3-Chloro-4-fluorophenyl)-2-(3-methoxy-3-methylbutyl)-5-(thiazol-2-yl)-1,2,6-thiadiazinane-3-carboxamide 1,1-dioxide]: the EC50 was greater than 5 µM.

For the compound `O=C(Nc1ccc(F)c(Cl)c1)[C@H]1C[C@@H](c2nccs2)NS(=O)(=O)N1CCOC(F)(F)F` [HBV-CSU-072-ISO-I, Cis-N-(3-Chloro-4-fluorophenyl)-5-(thiazol-2-yl)-2-(2-(trifluoromethoxy)ethyl)-1,2,6-thiadiazinane-3-carboxamide 1,1-dioxide], the EC50 was greater than 5 µM.

Turning to `CN1[C@H](C(=O)Nc2ccc(F)c(Cl)c2)C[C@H](c2ncc(-c3cn(C)cn3)s2)NS1(=O)=O` [HBV-CSU-276-ISO-I, (3S,5R)-N-(3-chloro-4-fluorophenyl)-2-methyl-5-(5-(1-methyl-1H-imidazol-4-yl)thiazol-2-yl)-1,2,6-thiadiazinane-3-carboxamide 1,1-dioxide], the EC50 was less than 1 µM.

As to `Cc1nn(C)cc1-c1csc([C@H]2C[C@@H](C(=O)Nc3ccc(F)c(Cl)c3)N(C)S(=O)(=O)N2)c1` [HBV-CSU-316-ISO-I, Cis-N-(3-chloro-4-fluorophenyl)-5-(4-(1,3-dimethyl-1H-pyrazol-4-yl)thiophen-2-yl)-2-methyl-1,2,6-thiadiazinane-3-carboxamide 1,1-dioxide], the EC50 is less than 1 µM.

As for `CN1[C@@H](C(=O)Nc2ccc(F)c(Cl)c2)C[C@@H](c2cc(-c3ccc(C(F)(F)F)nc3)cs2)NS1(=O)=O` [HBV-CSU-166-ISO-II, Cis-N-(3-chloro-4-fluorophenyl)-2-methyl-5-(4-(6-(trifluoromethyl)pyridin-3-yl)thiophen-2-yl)-1,2,6-thiadiazinane-3-carboxamide 1,1-dioxide], the EC50 was greater than 5 µM.

Regarding `CCc1sc(C2CC(C(=O)Nc3ccc(F)c(Cl)c3)N(C)S(=O)(=O)N2)cc1Br` (centres unmarked) [HBV-CSU-334, 5-(4-bromo-5-ethylthiophen-2-yl)-N-(3-chloro-4-fluorophenyl)-2-methyl-1,2,6-thiadiazinane-3-carboxamide 1,1-dioxide], the EC50 was less than 1 µM.

As for `CN1[C@H](C(=O)Nc2ccc(F)c(Cl)c2)C[C@H](c2cc(Cc3ccccc3)cs2)NS1(=O)=O` [HBV-CSU-149-ISO-I, Cis-(4-benzylthiophen-2-yl)-N-(3-chloro-4-fluorophenyl)-2-methyl-1,2,6-thiadiazinane-3-carboxamide 1,1-dioxide], the EC50 was less than 1 µM.

In the case of `CN1[C@H](C(=O)Nc2ccc(F)c(Cl)c2)C[C@H](c2ccc(C(N)=O)cc2)NS1(=O)=O` [HBV-CSU-214-ISO-II, Cis-5-(4-Carbamoylphenyl)-N-(3-chloro-4-fluorophenyl)-2-methyl-1,2,6-thiadiazinane-3-carboxamide 1,1-dioxide], the EC50 is less than 1 µM.

For `CN1[C@H](C(=O)Nc2ccc(F)c(Cl)c2)C[C@H](c2ncc(-c3ccccc3)s2)NS1(=O)=O`, the EC50 was less than 1 µM.

In the case of `CN1C(C(=O)Nc2ccc(F)c(Cl)c2)CC(c2ccc(C(N)=O)cc2)NS1(=O)=O` (racemic) [HBV-CSU-214, Cis-5-(4-Carbamoylphenyl)-N-(3-chloro-4-fluorophenyl)-2-methyl-1,2,6-thiadiazinane-3-carboxamide 1,1-dioxide], the EC50 was less than 1 µM.

With `COc1ccc(-c2cnc([C@H]3C[C@@H](C(=O)Nc4ccc(F)c(Cl)c4)N(C)S(=O)(=O)N3)s2)cc1` [HBV-CSU-250-ISO-I, Cis-N-(3-Chloro-4-fluorophenyl)-5-(5-(4-methoxyphenyl)thiazol-2-yl)-2-methyl-1,2,6-thiadiazinane-3-carboxamide 1,1-dioxide], the EC50 was less than 1 µM.

Consider `CN1[C@H](C(=O)Nc2ccc(F)c(Cl)c2)C[C@H](c2ccc(-c3cnn(C)c3)s2)NS1(=O)=O` [HBV-CSU-161-ISO-I, Cis-N-(3-chloro-4-fluorophenyl)-2-methyl-5-(5-(1-methyl-1H-pyrazol-4-yl)thiophen-2-yl)-1,2,6-thiadiazinane-3-carboxamide 1,1-dioxide], for which the EC50 is less than 1 µM.

In the case of `CN1C(C(=O)Nc2ccc(C#N)cc2)CC(c2cccs2)NS1(=O)=O` (stereo not drawn) [HBV-CSU-019, Cis-N-(4-cyanophenyl)-2-methyl-5-(thiophen-2-yl)-1,2,6-thiadiazinane-3-carboxamide 1,1-dioxide], the EC50 is greater than 5 µM.

Regarding `CN1C(C(=O)Nc2ccc(F)c(Cl)c2)CC(c2ccc(-c3cn[nH]c3)s2)NS1(=O)=O` (centres unmarked) [HBV-CSU-244], the EC50 is less than 1 µM.

`O=C(Nc1ccc(F)c(Cl)c1)[C@H]1C[C@@H](c2nccs2)NS(=O)(=O)N1CCCO` [HBV-CSU-078-ISO-II, Cis-N-(3-Chloro-4-fluorophenyl)-2-(3-hydroxypropyl)-5-(thiazol-2-yl)-1,2,6-thiadiazinane-3-carboxamide 1,1-dioxide]: the EC50 was greater than 5 µM.

Turning to `CCc1sc([C@H]2C[C@@H](C(=O)Nc3ccc(F)c(Cl)c3)N(C)S(=O)(=O)N2)cc1-c1cnn(C)c1` [HBV-CSU-305-ISO-I, Cis-N-(3-Chloro-4-fluorophenyl)-5-(5-ethyl-4-(1-methyl-1H-pyrazol-4-yl)thiophen-2-yl)-2-methyl-1,2,6-thiadiazinane-3-carboxamide 1,1-dioxide], the EC50 was less than 1 µM.

Turning to `CN1[C@@H](C(=O)Nc2ccc(F)c(Cl)c2)C[C@@H](c2cc(-c3ccc(C#N)c(F)c3)cs2)NS1(=O)=O` [HBV-CSU-164-ISO-II, Cis-N-(3-chloro-4-fluorophenyl)-5-(4-(4-cyano-3-fluorophenyl)thiophen-2-yl)-2-methyl-1,2,6-thiadiazinane-3-carboxamide 1,1-dioxide], the EC50 is greater than 5 µM.

`CN1C(C(=O)Nc2cc(F)c(F)c(F)c2)CC(c2ccc(F)cc2)NS1(=O)=O` (racemic) [HBV-CSU-212, Cis-5-(4-Fluorophenyl)-2-methyl-N-(3,4,5-trifluorophenyl)-1,2,6-thiadiazinane-3-carboxamide 1,1-dioxide]: the EC50 was less than 1 µM.

In general, EC50 refers to the concentration needed to bring the measured effect to its halfway point.
